# Results as given in patent US20230220354A1, “COMPOSITIONS AND METHODS FOR CONTROLLING CELLULAR IDENTITY” (King Abdullah University of Science and Technology, priority 2020, published 2023).
# Entries after “also recorded” stand apart in the source; their conditions may differ.
# Legend:
# [1] = tested on: astrocytes; assay: Lethality of individual metabolites for astrocytes in serum-free base medium; assay type: cell-based, mouse; conditions: millimolar (high) concentrations
# Method: The cocktail customization was performed in primary cultures of mature astrocytes, between the second and the fourth passage. Those cells were maintained at least 8 days in culture before passaging. We corroborated the expression of Gfap before starting the experiment by immunocytochemistry (FIG. 1G). We tested individual metabolites at different concentrations in a serum-free medium (base media, BM). BM contained equivalent volumes of DMEM-F12 and Neurobasal, plus the supplements N2 and B27 at 1X. Notes about specific molecules added. S-adenosylmethionine (SAM) at millimolar concentrations was lethal for astrocytes, which is in line with the lower physiological concentrations usually found for this metabolite compared to others. Cysteine is high-sensitive to oxidation, which is manifested as white flake precipitation, a high-concentrated stock solution [2500mM] dissolved in ddH2O with pH slightly acid (5.5-6) was prepared to prevent this issue. We corroborated a pH always close to 7.4 in the cells maintained in vitro, before and after treating them with cocktails containing the diluted solution of cysteine.
# [2] = tested on: primary cultures of mature astrocytes; assay: Customization of C1-MIM concentrations: relative gene expression (Gfap, Cd44) by rtPCR in mature astrocytes; assay type: cell-based, mouse
# Method: Astrocytes were derived from cortical tissues postnatal or differentiated from dissociated neurospheres after a second or third passage, as described herein. For postnatal astrocytes, cortices were isolated from P4 mice pups to get single cells and were plated as described by Schildge et al.^51Confluent cultures were sorted with Anti-GLAST (ACSA-1) Microbead kit according to manufacturer instructions. For inducing differentiation from NSCs, single cells derived from neurospheres were exposed to astrocyte media. In both cases, cells were plated over pre-treated Poly-L-Lysine plates or Poly-D-Lysine glass-coverslips using Astrocyte Differentiation Medium (DMEM-F12, 10% heat-inactivated FBS, lx B27, and 1X Glutamax).
# Cell cultures seeded on adherent conditions were kept on their respective differentiation media until they reach a mature phenotype (defined by the expression of markers specific to each cell type). When cultures reached around 80-90% confluence, the differentiation media was removed, cells were washed twice with PBS and the media was replaced with CI-MIM. The composition of C1-MIM includes up to 6 metabolites (details of the combinations used are specified in figure legends) including Methionine, Threonine, Glycine, Putrescine, Cysteine [5mM], and S-adenosylmethionine [0.05mM], which are dissolved in a base medium (BM) composed by DMEM-F12 plus Neurobasal [1:1], supplemented with 1X B27, 1X N2. […] In all cases, from the same batch of each cell culture, a control culture was also washed with PBS but maintained with their own differentiation media along all the time of the treatment. Cells in this schema were fed every other day. Cells were monitored daily to attest to the change in morphology. Cells were collected on the fifth day or earlier after starting the MIM treatment (indicated in each specific case in the figure legend) for further analyses, as indicated in the figure legends of each experimental approach. Viability of cultures at the time of collection was measured by trypan blue, and all cases above 85% viable cells were processed for downstream analyses.
# Total RNA was isolated from cells grown on Petri dish at the indicated time points, using the RNeasy Plus Mini kit QIAGEN, according to the manufacturer's protocol, including a DNA-removal step with DNAseI. Amount and purity of RNA were assessed using a NanoDrop spectrophotometer (Nanodrop Technologies); at least 500 ng of total RNA was used to synthesize cDNA by reverse transcription, using Maxima™ H
# Minus cDNA Synthesis Master Mix. 2.5-10 ng of cDNA was used in the following qPCR performed on a CFX384 thermal cycler (Bio-Rad) using the SsoAdvanced™ Universal SYBR® Green Supermix. Results were normalized to at 193 least one reference genes β-Actin, RPL38, GAPDH, Gus, CTCF, and Natl, specified per figure), selected for their highest stability among a pool of common housekeeping genes. Primers were designed by NCBI/Primer-BLAST primers designing tool (Table 1). Statistical analysis of the results was performed using the 2ACt method^s. Results were expressed relative to the expression values of the experimental control.
# The cocktail customization was performed in primary cultures of mature astrocytes, between the second and the fourth passage. Those cells were maintained at least 8 days in culture before passaging. […] We tested individual metabolites at different concentrations in a serum-free medium (base media, BM). […]
compound,measurement,setting,value
C[S+](CC[C@H](N)C(=O)[O-])C[C@H]1O[C@@H](n2cnc3c(N)ncnc32)[C@H](O)[C@@H]1O (stereo partly shown) [S-adenosylmethionine],lethality / toxicity for astrocytes,[1],lethal; also recorded: toxic
same,lethality / toxicity for astrocytes,[1]; listed as SAM,lethal
N[C@@H](CS)C(=O)O [cysteine],Gfap expression,"[2]; individual metabolite, range of concentrations (0.025 to 10mM)",potentiates
NCCCCN [putrescine],Gfap expression,[2]; separate metabolite at 1mM,repressed
C[C@@H](O)[C@H](N)C(=O)O [threonine],Gfap expression,[2]; separate metabolite at 1mM,repressed
FGF2: growth factor added to improve cell survival in serum-free medium [reference compound],Gfap expression,[2]; 20ng/mL,did not inhibit
same,Gfap expression,[2]; concentrations lower than 20ng/mL,potentiate
